Key:
[1] = Crystallinity of CoQ10 by modulated differential scanning calorimetry (MDSC); assay type: physicochemical; conditions: Example 6, 20% total solids; MDSC heat-only, aluminum hermetic pans
Source text: Four spray dried powders were made containing CoQ10 and two solubility-enhancing polymers at two CoQ10:polymer ratios for each polymer.

[2] = Dissolution, USP apparatus II (paddles), media containing Cremophor EL and 4% Acconon MC8; assay type: physicochemical; conditions: Example 6
Method: Dissolution properties were measured on the four spray dried powders of Example 1, crystalline CoQ10 and two commercial CoQ10 products (one soft gel and one dry powder capsule). All non-commercial samples were hand-filled into size 1 gelatin capsules (Shinogi Qualicaps). USP apparatus II (paddles) (VK 70100®, Varian Inc.) was used, with a bath temperature of 37° C. at 50 rpm for the first 60 minutes and then 200 rpm for an additional 15 minutes. The media contained Cremophoro EL (BASF Corp.), and 4% Acconono® MC8 (Abitec Corp.). Analysis was performed using high pressure liquid chromatography (HPLC) with UV detection (SCL-10 controller with SPD-10A detector module, Shimadzu Scientific Instruments)

[3] = dissolution method of Example 2

crystallinity [1]: 100%
t50% (time for 50% CoQ10 dissolution) [2, 3]: not attained
t80% (time for 80% CoQ10 dissolution) [2, 3]: not attained
max. CoQ10 release ([2]; dissolution method of Example 2, 75 minutes): 4.3%
Compound: COC1=C(OC)C(=O)C(C/C=C(\C)CC/C=C(\C)CC/C=C(\C)CC/C=C(\C)CC/C=C(\C)CC/C=C(\C)CC/C=C(\C)CC/C=C(\C)CC/C=C(\C)CCC=C(C)C)=C(C)C1=O [CoQ10 (as received), Coenzyme Q10]

Source: patent US20070026072A1, “Benzoquinones of enhanced bioavailability” (priority 2005, published 2007)
